Activity calls are given as the source filed them.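 Rule for the calls: active = AC50 no more than ten times the top concentration tested, that is within one log above it; inconclusive = flat curve fit with activity between 30% and 70%, or invalid poor fit; inactive = AC50 beyond ten times the top tested dose.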
system: S. cerevisiae Mot1-301 ts growth rescue, BacTiter-Glo ATP luminescence; experiment: growth rescue of Mot1-301 ts yeast, confirmation, SUMOylation pathway inhibitor project, whole organism, S. cerevisiae, Mot1-301 ts mutant, luminescence, dose retest (AID 463204);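 note: growth at restrictive 38.5 degrees C of Mot1-301 OY566 strain; actives raise luminescence by restoring growth of the ts mutant at high temperature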

Row | SMILES | AC50
1 | Nc1nc(CSc2nnnn2-c2ccc(Cl)cc2)nc(N2CCOCC2)n1 | > 42 µM (inactive)
2 | O=C(Nc1ccc([N+](=O)[O-])cn1)c1ccc2c(c1)OCO2 | > 42 µM (inactive)
3 | CNS(=O)(=O)c1cccc(C(=O)OCC(=O)Nc2ccc(OC)cc2[N+](=O)[O-])c1 | > 42 µM (inactive)
4 | CC(C)CCNC(=O)Nc1ccc2c(c1)N(C)C(=O)CS2 | > 42 µM (inactive)
5 | CC(=O)N(C(C)=O)C1=C(C#N)C2(CCCCC2)Cc2ccccc21 | > 42 µM (inactive)
6 | CCOc1ccc(C(=O)Nc2ccc(CN3CCOCC3)cc2)cc1Br | > 21 µM (inactive)
7 | O=C(N/N=C/C(Br)=C/c1ccccc1)c1n[nH]c2c1CCC2 | 6.68 µM
8 | CCC(C)c1ccc(S(=O)(=O)N2CCN(C(=O)COc3ccc4c(C)cc(=O)oc4c3)CC2)cc1 (stereo not drawn) | > 42 µM (inactive)
9 | Cc1ccc(S(=O)(=O)NN2C(=O)c3ccccc3NC2c2ccccc2F)cc1 (stereo not drawn) | > 42 µM (inactive)
10 | Cn1cccc1CC(=O)N/N=C/c1cccc([N+](=O)[O-])c1 | > 42 µM (inactive)
11 | Cc1ccn2cc(-c3cnoc3C)nc2c1 | > 42 µM (inactive)
12 | Cc1cccc(NS(=O)(=O)c2ccc3[nH]c(=O)cc(C(=O)O)c3c2)c1 | > 21 µM (inactive)
13 | COC(=O)c1ccccc1NC(NC(=O)c1ccco1)C(=O)c1ccccc1 (stereo not drawn) | > 42 µM (inactive)
14 | CCNC(=O)NC1c2ccccc2CSc2ccccc21 (stereo not drawn) | > 42 µM (inactive)
15 | COc1ccc(CCN2CC(C(=O)N(C)CC(=O)Nc3cccc(F)c3)CC2=O)cc1OC (stereo not drawn) | > 42 µM (inactive)
16 | CCOC(=O)C1CCCN(C(=O)/C=C/c2ccc(Cl)cc2)C1 (stereo not drawn) | > 42 µM (inactive)
17 | CN(C)CCN(Cc1ccc(Cl)cc1)c1ccccn1 | > 42 µM (inactive)
18 | O=C(CSc1ncnc2nc[nH]c12)Nc1ccccc1C(F)(F)F | > 42 µM (inactive)
19 | CC1=CC2=NC(=O)/C(=C\c3cc(C)n(-c4ccccc4)c3C)C(=N)N2O1 | > 42 µM (inactive)
20 | Cc1nn(CCOc2ccccc2)c(=O)n1-c1ccccc1F | > 42 µM (inactive)
21 | Cc1ccc2c(c1)N(CC(=O)NCCCN1CCN(C)CC1)C(=O)CO2 | > 42 µM (inactive)
22 | CNC(=O)COC(=O)c1cc(-c2ccco2)nc2ccccc12 | > 42 µM (inactive)
23 | Cc1c(OC(C)C(=O)N2C[C@H]3C[C@@H](C2)c2cccc(=O)n2C3)ccc2c3c(c(=O)oc12)CCCC3 (stereo partly drawn) | > 42 µM (inactive)
24 | COc1ccc(N=C2SC(C(=O)O)CC(=O)N2Cc2ccc(OC)c(OC)c2)cc1 (stereo not drawn) | > 42 µM (inactive)
25 | CCOC(=O)c1c(C)[nH]c2c1cc(O)c1ccccc12 | > 42 µM (inactive)

Row | SMILES | AC50
26 | CC(C)(c1ccccc1)c1ccc(OCCN2CCOCC2)cc1 | > 42 µM (inactive)
27 | c1ccc(OCCCc2nc(-c3cccnc3)no2)cc1 | > 42 µM (inactive)
28 | OC(COc1ccccc1)Cn1c2ccccc2c2ccccc21 (stereo not drawn) | 35.6 µM
29 | Cc1cc(C(F)(F)F)c(C#N)c(=O)[nH]1 | > 42 µM (inactive)
30 | Fc1ccc2nc(C3CCN(Cc4nc(CC5CC5)no4)CC3)[nH]c2c1 | > 42 µM (inactive)
31 | CC1CCCC(C)N1CCCNC(=O)c1csc2c1CCCCC2 (stereo not drawn) | > 42 µM (inactive)
32 | CCN(CC(=O)NCc1ccc(Cl)cc1)C(=O)/C=C/c1ccc(C#N)cc1 | > 42 µM (inactive)
33 | CCN1CCCC(NC(=O)c2scc3c2CCCC3)C1 (stereo not drawn) | > 42 µM (inactive)
34 | CC(=O)c1ccc(Oc2cc(C)nc(N3CCOCC3)n2)cc1 | > 42 µM (inactive)
35 | COc1ccccc1NC(=O)c1ccc(-n2ccnc2)c([N+](=O)[O-])c1 | > 42 µM (inactive)
36 | Cc1ccccc1-c1nc(CN2CCCC(C(=O)NCc3cccnc3)C2)c(C)o1 (stereo not drawn) | > 42 µM (inactive)
37 | CS(=O)(=O)Nc1ccccc1C(=O)NCCSCc1ccccc1 | > 42 µM (inactive)
38 | CCCn1c(=O)c2ccccc2n2c(SCC(=O)N3CCc4ccccc4C3)nnc12 | > 42 µM (inactive)
39 | CC1(OC(=O)CCc2ccccc2)C(=O)C=C2C=C(c3ccc(C#N)cc3)N(CC3CC3)C=C2C1=O (stereo not drawn) | > 42 µM (inactive)
40 | COC(=O)c1ccc(Cn2cc(Cl)cn2)cc1 | > 42 µM (inactive)
41 | Cc1ccc(S(=O)(=O)N2CCN(C(=O)CSc3nc(N)cc(=O)[nH]3)CC2)c(C)c1 | > 42 µM (inactive)
42 | Cc1nn(CC(N)=O)c(=O)c2ccccc12 | > 42 µM (inactive)
43 | COc1ccc(C(=O)CSc2nnc3ccc(-c4ccccn4)nn23)cc1 | > 42 µM (inactive)
44 | Cc1c(Cl)c([N+](=O)[O-])nn1CC(=O)NC12CC3CC(CC(C3)C1)C2 | > 42 µM (inactive)
45 | COc1ccc(-c2csc(NC(=O)CS(=O)(=O)c3ccc(F)cc3)n2)cc1OC | > 42 µM (inactive)
46 | CCS(=O)(=O)c1nc(S(=O)(=O)c2ccc(Cl)cc2)c(N2CCc3ccccc3C2)s1 | > 42 µM (inactive)
47 | CCOC(=O)c1cnc2c(OC)cccc2c1N1CCN(c2ccccc2OC)CC1 | > 42 µM (inactive)
48 | COc1ccc(NC(=O)CSc2nnc(-c3ccccn3)n2-c2ccccc2)cc1OC | > 42 µM (inactive)
49 | Cc1ccc(/C=C2\SC(N3CCCC3)=NC2=O)cc1 | > 42 µM (inactive)
50 | CCOC(=O)C1CC(c2ccccc2)=NNC1=O (stereo not drawn) | > 42 µM (inactive)

Row | SMILES | AC50
51 | O=C(COC(=O)CNC(=O)c1ccc(Cl)cc1)Nc1ncc(C(F)(F)F)cc1Cl | > 42 µM (inactive)
52 | C=C(Cl)COC(=O)C1C2C=CC(C2)C1C(=O)O (stereo not drawn) | > 42 µM (inactive)
53 | CN(C)/C(CN1CCCCC1)=C1\N=C(c2ccccc2)OC1=O | > 42 µM (inactive)
54 | CCn1cc(C(=O)N(C)c2ccc(OC)cc2OC)c2cc(OC)c(OC)cc2c1=O | > 42 µM (inactive)
55 | O=C(CSc1nnc(COc2ccccc2Cl)o1)NC(=O)NC1CCCC1 | > 42 µM (inactive)
56 | Cc1cc(C(F)F)n2ncc(C(=O)NCCc3ccc(Cl)cc3)c2n1 | > 42 µM (inactive)
57 | CC(C)c1ccc(C2C(C(=O)c3ccco3)=C(O)C(=O)N2CCN2CCOCC2)cc1 (stereo not drawn) | > 42 µM (inactive)
58 | Cc1sc(NC(=O)c2ccc(Br)s2)c(C(N)=O)c1C | > 42 µM (inactive)
59 | CCC1(c2ccccc2)NC(=O)N(CC(=O)N(C)CC(=O)Nc2ccc(F)c(F)c2F)C1=O (stereo not drawn) | > 42 µM (inactive)
60 | C/C(CC(=O)Nc1cccc(Cl)c1Cl)=N\NC(=O)c1ccccc1C | > 42 µM (inactive)
61 | Nn1c(SCc2cc([N+](=O)[O-])cc3c2OCOC3)nnc1-c1ccccn1 | > 42 µM (inactive)
62 | Cc1ccc(NC(=O)Nc2cccc(C(F)(F)F)c2)nc1 | > 42 µM (inactive)
63 | CC(C)(C)C1c2[nH]c3ccccc3c2CCN1Cc1cccc(OCCO)c1 (stereo not drawn) | > 42 µM (inactive)
64 | Cc1cc(Oc2cc(NN3CCCCC3)c([N+](=O)[O-])cc2[N+](=O)[O-])ccc1[N+](=O)[O-] | > 42 µM (inactive)
65 | C/C(=N/Nc1ccc(F)cc1)c1ccc(Cl)s1 | > 42 µM (inactive)
66 | O=S(=O)(NCCN1CCCC1)c1cccc2cccnc12 | > 42 µM (inactive)
67 | C=CCn1c(-c2ccc(OC)cc2)nc2ccccc21 | > 42 µM (inactive)
68 | Nc1ccc(N2CCN(c3ccc(F)cc3)CC2)cc1 | > 42 µM (inactive)
69 | O=C(CCN1C(=O)S/C(=C/c2ccccc2)C1=O)Nc1ccc(O)c(C(=O)O)c1 | > 42 µM (inactive)
70 | CCN1CCN(CC(=O)Nc2cccc(C)c2C)C(=O)C1=O | > 42 µM (inactive)
71 | COc1ccccc1N1CCN(C(=O)c2sc3ncnc(N4CCN(c5ccccn5)CC4)c3c2C)CC1 | > 42 µM (inactive)
72 | CCOc1ccc(-c2c(C(=O)N/N=C/c3ccncc3)nnn2-c2nonc2N)cc1 | > 42 µM (inactive)
73 | COc1ccccc1N1CCN(C(=O)c2ccc(N3CCCCS3(=O)=O)cc2)CC1 | > 42 µM (inactive)
74 | O=C(NCCN1CCOCC1)Nc1ccc(Cl)cc1Cl | > 42 µM (inactive)
75 | COC(=O)C1(Cc2ccc(O)cc2)OC(=O)C(O)=C1c1ccc(O)cc1 (stereo not drawn) | > 42 µM (inactive)

Row | SMILES | AC50
76 | COC(=O)C1=C(C)NC(C)=C([N+](=O)[O-])C1c1ccccc1C(F)(F)F (stereo not drawn) | > 42 µM (inactive)
77 | CCOc1cc(C(N)=O)cc(Cl)c1OCc1ccccc1 | > 42 µM (inactive)
78 | N#C/C(=C\c1ccc(O)c(O)c1)C(=O)Nc1ccccc1 | > 42 µM (inactive)
79 | Cc1nc2c(-c3ccc(F)cc3)cnn2c2c1CCC2 | > 42 µM (inactive)
80 | CCCCN(C/C=C/c1ccccc1OC)Cc1ccccc1 | > 42 µM (inactive)
81 | COc1cccc(C(=O)N2CCN(S(=O)(=O)Cc3ccccc3)CC2)c1OC | > 42 µM (inactive)
82 | Cc1ccc(C(=O)/C=C/Nc2ccccc2C(N)=O)cc1 | > 42 µM (inactive)
83 | Cc1ccc(NC(=O)C(=O)NCC2CCCN2S(=O)(=O)c2cccs2)cc1 (stereo not drawn) | > 42 µM (inactive)
84 | CCCn1c(N)cc(=O)n(CCC)c1=O | > 42 µM (inactive)
85 | CNC(=O)c1ccccc1S(=O)c1ccccc1COC(C)=O (stereo not drawn) | > 42 µM (inactive)
86 | COc1ccc(C2C(C(=O)Nc3cc(OC)c(OC)c(OC)c3)c3ccccc3C(=O)N2C)cc1 (stereo not drawn) | > 42 µM (inactive)
87 | COc1ccc(/C=C2\SC(=S)N(CCCC(=O)Nc3cc(C)on3)C2=O)cc1OC | > 42 µM (inactive)
88 | Cc1cccc(OCC(O)CN2C(C)(C)CC(O)CC2(C)C)c1 (stereo not drawn) | > 42 µM (inactive)
89 | O=C(c1cc2c(ccc3ccccc32)oc1=O)N1CCCC1 | > 42 µM (inactive)
90 | COC(=O)C1(Cc2cc(-c3ccccc3)no2)CCN(C(=O)OC(C)(C)C)CC1 | > 42 µM (inactive)
91 | Cc1ccc(C(=O)NC(NC(=O)c2ccc(C)cc2)C(Cl)Cl)cc1 | > 42 µM (inactive)
92 | CCCCCCCCCCOC(=O)Cn1c(COc2ccc(OC)cc2)[n+](C)c2ccccc21 | 6.72 µM
93 | CN(Cc1ccccc1)c1ccc(S(=O)(=O)N2CCC(C(=O)O)CC2)cc1[N+](=O)[O-] | > 42 µM (inactive)
94 | COc1ccc2[nH]cc(CCNS(=O)(=O)c3ccc(C)cc3)c2c1 | > 42 µM (inactive)
95 | COc1cc(/C=N/n2c(C3CCCCC3)n[nH]c2=S)cc(OC)c1O | > 42 µM (inactive)
96 | COc1cc(SC)ccc1C(=O)Nc1cc(C)c(OCC(=O)N2CCOCC2)c(C)c1 | > 42 µM (inactive)
97 | O=[N+]([O-])c1c(NCCCO)cc(Sc2nc3ccccc3s2)c2nonc12 | 40 µM
98 | O=C(O)/C=C\C(=O)NC1CCCCC1 | > 42 µM (inactive)

— PubChem BioAssay AID463204 (Broad Institute, 2010)
